“And” between values parts separate entries of the source, which are not always exact repeats. Equal entries are not always repeated.
What was measured:
PGC-1α = assay: In vivo PGC-1α expression in liver of LPS-treated mice (ELISA); parameters: species or system C57BL/6 mice; settings: LPS 3 mg/Kg IP, test compound 10 mg/kg PO BID, liver, 24 hours post LPS; for PGC-1α levels: C57BL/6 mice; for PGC-1α level (%): Control = 100
Method: C57BL/6 mice were procured from Vivo Bio Tech Ltd. Male mice were used for the study within an age range of 7 to 8 weeks. Body weight for these mice ranged from 20 g to 25 g. Animals were housed in a group of 6 in individually ventilated cages with temperature of 22±3° C., a relative humidity of 50 to 60%. The bottom of the cages was layered with sterilized corn cob. Animals were provided with gamma irradiated feed and autoclaved drinking water ad-libitum. The IVCs were maintained at an environment controlled (Centrally Air-Conditioned) room at a temperature of 22±3° C., a relative humidity of 50 to 60%, light intensity of 250-300 lux and a 12 hour light-dark cycle and noise intensity of <85 db.
Method of Preparation: LPS was dosed at 3 mg/kg in a dose volume of 10 ml/kg. For this, 0.3 mg/ml of LPS solution (Micronized suspension) was prepared. Butter paper was placed on analytical balance, tarred and LPS was placed on butter paper and its weight was noted down. LPS was transferred to 15 ml falcon tube. Then required amount of normal saline was added to it to make it 0.3 mg/ml. The solution was vortexed properly for 5 minutes and placed on ice. LPS solution was vortexed every time before aspiration and injection.
LPS was dosed at 3 mg/kg. Each test compound was dosed at 10 mg/kg, 2 hour and 15 min post LPS administration.
0.5% CMC was used as a vehicle with a dose volume of 10 ml/kg. An IP route was used for LPS, and a PO route was used for each test compound. Animals were sacrified 24 hours post LPS dosing, and plasma were collected. PGC-1α level was measured in liver samples, and other tissues were stored for future analysis. PGC-1α level was checked using ELISA kit—CUSABIO Mouse PPARGC1A ELISA kit.
Protocol: One day before start of the experiment C57BL/6 Mice (Male, 6-7-week-old) were randomized on the basis of their body weight and were divided into groups. All the cages were assigned the respective group name. Animals inside each cage were marked on the base of the tails with permanent marker to distinguish each animal. Mice were fasted overnight. Next day morning animals were dosed with test item. Group 1 (Control) and Group 2 (LPS) Animals were dosed with vehicle (0.5% CMC). Test items were prepared in 0.5% CMC by trituration in mortar and pestle and addition of CMC drop by drop. 2 hour post test item/vehicle dosing animals were administered with LPS through IP route at 3 mg/kg of body weight. Group 1 (Control) animals were administered with saline. 0.25 hour post LPS administration, animals were again dosed with test item/vehicle. Post dosing, animals were returned to their respective cages and kept until termination of the study. No feed was offered to any group. Animals were provided with water. 24 hour post LPS administration, blood was collected from each animal under influence of mild isoflurane anesthesia through retro-orbital technique. Animals were sacrificed by CO2 asphyxiation technique. Post-termination, animals were dissected and vital organs, liver, brain, skeleton muscle were collected in Eppendorf tubes and flash frozen in liquid nitrogen. Serum was collected from whole blood by centrifuging it at 4° C. at 10,000 RPM and for 10 minutes. (Blood was left for 2 hour for coagulation before centrifugation) After completion of the experiment, all collected samples were stored at −80° C. until analysis.
Assay Methods/Protocol: The mortar was chilled with liquid nitrogen and then the small tissue pieces were grinded in the presence of liquid nitrogen to a fine powder. Immediately after grinding, transferred small amount of tissue powder to a 1.5 ml micro centrifuge tube containing 1.0 ml lysis buffer (RIPA buffer+Protease inhibitor). The samples were then incubated on ice for 2 hours. The samples were vortexed every 15 minutes. The samples were then centrifuged at 13000×g for 15 minutes at 2-8° C. After centrifugation the supernatant was removed carefully and pellet was discarded. […]

[1] = tested on: PGC-1α expression in C2C12 cells; assay: In vitro PGC-1α expression in C2C12 cells (cell ELISA); assay type: cell-based; settings: 0.01 nM, 5000 cells/well, OD @ 650 nm, DMSO control = 100
Method: Culture conditions: DMEM containing 25 mM glucose with 10% FBS supplementation; grown at 37° C. and 5% CO2.
Drugs: (+)-Epicatechin, AICAR (direct activator of AMPK).
Assay Conditions: C2C12 cells were cultured in DMEM supplemented in 10% FBS upto 80% confluence. The cells were further trypsinized and seeded into a 96 well plate at a density of 5000 cells/well (well volume—100 μL) (Day 0). Following attachment, the cells were allowed to reach 80-90% confluence in the plate (typically 48 hours post seeding) and further differentiated using DMEM+2% Horse Serum (200 μL/well). The media was changed every day or at least every alternate day for 5 days to allow myoblasts to differentiate into myotubes. On day 7 (post seeding), the cells were treated with standards and test compounds for PGC-1 α assay.
PGC-1α assay: For the detection of PGC-1a, the cells were incubated with 0.5 μg/ml primary antibody (Merck, WH0010891M3) in PBS-T containing 5% BSA at 4° C. overnight. The cells were then washed three times with PBS-T for 5 minutes and incubated with 1:1000 dilution secondary antibody (Anti-rabbit IgG, HRP-linked Antibody, Cell Signaling) in PBS-T with 1% BSA for 1 hour at RT. Cells were washed three times with PBS-T for 5 minutes The cells were incubated with 100 μl TMB substrate solution for 30 minutes and the reaction was stopped with 100 μl of 2N H2SO4. […] (For plate optical density calculations, a background correction was taken at 540 nm). The final PGC-1a activation % is average of activation of 6 replicates.

SMILES | PGC-1α levels (PGC-1α) | PGC-1α level (%) (PGC-1α) | % Activity (PGC-1α expression) [1]
CN1C(=O)CC[C@@]2(C)C1=CCC1C2[C@@H](O)C[C@@]2(C)C1CC[C@@H]2NC(=O)C1CC1 (stereo partly drawn) [Compound 26, N-((4aR,5S,6aS,7S)-5-hydroxy-1,4a,6a-trimethyl-2-oxo-2,3,4,4a,4b,5,6,6a,7,8,9,9a,9b,10-tetradecahydro-1H-indeno[5,4-f]quinolin-7-yl)cyclopropanecarboxamide] | 32298 pg/mL | 84% | 129% and 146%
CC(C)CCNC(=O)C1CCC2C3CC=C4N(C)C(=O)CC[C@]4(C)C3[C@@H](O)C[C@]12C (stereo partly drawn) [Compound 36, (4aR,5S,6aS)-5-hydroxy-N-isopentyl-1,4a,6a-trimethyl-2-oxo-2,3,4,4a,4b,5,6,6a,7,8,9,9a,9b,10-tetradecahydro-1H-indeno[5,4-f]quinoline-7-carboxamide] | 29341 pg/mL | 77% | 133% and 130%
CNC(=O)[C@H]1CCC2C3CC=C4N(C)C(=O)CC[C@]4(C)C3[C@@H](O)C[C@@]21C (stereo partly drawn) [Compound 40, (4aR,5S,6aS)-5-hydroxy-N,1,4a,6a-tetramethyl-2-oxo-2,3,4,4a,4b,5,6,6a,7,8,9,9a,9b,10-tetradecahydro-1H-indeno[5,4-f] quinoline-7-carboxamide] | 39014 pg/mL and 22668 pg/mL | 73% and 75% | 130% and 143%

From US20240270786A1, “STEROID COMPOUNDS” (Epirium Bio Inc., priority 2022, published 2024)
